What was measured:
[1] = riboflavin solutions, 40 W fluorescent light, 1350 foot-candles; cited from earlier work
[2] = compared with solubility in water; cited from earlier work
bovine cornea = conditions: compared to riboflavin in deionized water; cited from earlier work
cornea = conditions: UVA irradiation at 370 nm, immediately after irradiation; cited from earlier work
[3] = Riboflavin titer determination before and after sterilization (stability); type: physicochemical; conditions: 1 atm, 121° C.
Source text: Riboflavin Titer Determination

[4] = ROS (superoxide anion) production on 366 nm irradiation, measured by reduction of Nitro Blue Tetrazolium to Formazan Blue (absorbance at 560 nm); conditions: at different light intensities
Experimental: The rational of the method is based on the fact that some organic molecules, both natural and synthetic, when irradiated with a particular wavelength, activate and, by interacting with oxygen, produce superoxide anion. […] As the amount of produced superoxide anion correlates with the amount of reduced NBT, from the absorption rate of reduced NBT is obtained the amount of ROS, thereby the ROS production can be expressed as function of irradiation time (minutes).
The ROS measurement is performed by a photoactivation chamber which enables to irradiate in controlled conditions the solutions of photoactivator and detector. The controlled parameters are emission specificity, uniform radiance, irradiation intensity, irradiation time.
Riboflavin-5′-(dihydrogen phosphate), monosodium salt, control sample, NBT control sample and reference sample were irradiated at different incident light intensity (99 μW/cm^2, 223 μW/cm^2, 633 μW/cm^2) (366 nm wavelength) in the photoactivation chamber, and absorbance at 560 nm is recorded. During the irradiation the temperature of the solutions was measured. […] Therefore reasonably the effect of temperature is marginal on these absorbance measures.
The two samples were irradiated in the photoactivation chamber by 99 μW/cm^2 incident light, and absorbance at 560 nm was recorded according to the above described procedure. […]

Molecule	stabilizing effect on riboflavin (photodegradation) [1] [%]	effect on riboflavin aqueous solubility [2]	effect on riboflavin permeability (bovine cornea) (bovine cornea)	further results
N[C@@H](CCC(=O)N[C@@H](CS)C(=O)NCC(=O)O)C(=O)O [reduced glutathione]	26.2			
COC(=O)c1ccc(O)cc1 [methylparaben]	86.4			
O=C([O-])CN(CCN(CC(=O)[O-])CC(=O)O)CC(=O)O.[Na+].[Na+] [disodium ethylenediamine (EDTA)]	96.2			
O=S([O-])([O-])=S.[Na+].[Na+] [sodium thiosulfate]	72.9			
2-Hydroxypropyl-β-cyclodextrin		failed to enhance drug solubility at any significant level	no significant improvement in drug permeation	
ribonucleic acid	59.3			
Cc1cc2nc3c(=O)[nH]c(=O)nc-3n(C[C@H](O)[C@H](O)[C@H](O)COP(=O)([O-])O)c2cc1C.[Na+] [Riboflavin phosphate, Riboflavin-5-Phosphate Sodium]				increase of the biomechanical rigidity of the cornea (cornea): about 300%; Riboflavin % by weight ([3]; in presence of EDTA H4 (0.1% p/p), Tris (0.05% p/p) and phosphate buffer, sterilization 20 min): 67.0 % by weight; Riboflavin % by weight ([3]; in presence of EDTA H4 (0.1% p/p), Tris (0.05% p/p) and phosphate buffer, sterilization 30 min): 60.0 % by weight; Riboflavin % by weight ([3]; in presence of EDTA H4 (0.1% p/p), Tris (0.05% p/p) and phosphate buffer, sterilization 45 min): 50.0 % by weight; Riboflavin % by weight ([3]; in presence of borate buffer, sterilization 20 min): 68.0 % by weight; Riboflavin % by weight ([3]; in presence of distilled water, sterilization 20 min): 95.0 % by weight; Riboflavin % by weight ([3]; in presence of distilled water, sterilization 30 min): 92.0 % by weight; Riboflavin % by weight ([3]; in presence of distilled water, sterilization 45 min): 90.0 % by weight; Riboflavin % by weight ([3]; in presence of phosphate buffer, sterilization 20 min): 65.0 % by weight; Riboflavin % by weight ([3]; in presence of phosphate buffer, sterilization 30 min): 40.0 % by weight; Riboflavin % by weight ([3]; in presence of phosphate buffer, sterilization 45 min): 39.0 % by weight; change of the absorption on irradiation [4]: no appreciable change of the absorption
OC[C@H]1O[C@@H]2O[C@H]3[C@H](O)[C@@H](O)[C@@H](O[C@H]4[C@H](O)[C@@H](O)[C@@H](O[C@H]5[C@H](O)[C@@H](O)[C@@H](O[C@H]6[C@H](O)[C@@H](O)[C@@H](O[C@H]7[C@H](O)[C@@H](O)[C@@H](O[C@H]8[C@H](O)[C@@H](O)[C@@H](O[C@H]9[C@H](O)[C@@H](O)[C@@H](O[C@H]1[C@H](O)[C@H]2O)O[C@@H]9CO)O[C@@H]8CO)O[C@@H]7CO)O[C@@H]6CO)O[C@@H]5CO)O[C@@H]4CO)O[C@@H]3CO [γ-cyclodextrin]		failed to enhance drug solubility at any significant level	no significant improvement in drug permeation	
CSCCC(N)C(=O)O (racemic) [DL-methionine]	76.3			
NC(N)=S [thiourea]	88.2			
OC[C@H]1O[C@@H]2O[C@H]3[C@H](O)[C@@H](O)[C@@H](O[C@H]4[C@H](O)[C@@H](O)[C@@H](O[C@H]5[C@H](O)[C@@H](O)[C@@H](O[C@H]6[C@H](O)[C@@H](O)[C@@H](O[C@H]7[C@H](O)[C@@H](O)[C@@H](O[C@H]1[C@H](O)[C@H]2O)O[C@@H]7CO)O[C@@H]6CO)O[C@@H]5CO)O[C@@H]4CO)O[C@@H]3CO [α-cyclodextrin]		increased riboflavin solubility	no significant improvement in drug permeation	
OC[C@H]1O[C@@H]2O[C@H]3[C@H](O)[C@@H](O)[C@@H](O[C@H]4[C@H](O)[C@@H](O)[C@@H](O[C@H]5[C@H](O)[C@@H](O)[C@@H](O[C@H]6[C@H](O)[C@@H](O)[C@@H](O[C@H]7[C@H](O)[C@@H](O)[C@@H](O[C@H]8[C@H](O)[C@@H](O)[C@@H](O[C@H]1[C@H](O)[C@H]2O)O[C@@H]8CO)O[C@@H]7CO)O[C@@H]6CO)O[C@@H]5CO)O[C@@H]4CO)O[C@@H]3CO [β-cyclodextrin]		increased riboflavin solubility	enhances riboflavin permeability	

— US10688196B2, “Cross-linking agents of collagen fibers for the use in the treatment of corneal ectasia” (SOOFT ITALIA SPA, priority 2015, dated 2020)
